Data reported in patent US12539301B2, “Compound external preparation for treating alopecia areata and preparation method therefor” (CHANGSHA JINGYI PHARMACEUTICAL TECHNOLOGY CO., LTD, priority 2020, dated 2026).
Where a name gives a salt, the structure may show the parent alone. Read-outs that look alike come from different tables or passages of the source.

Legend:
[1] = assay type: physicochemical; settings: for Dissolution condition: 100 parts per 1 part API, 30 min, heating (60° C.), after cooling
Text: Dissolution condition and dissolution required for quantifying the API in a quantitive solvent were used as preliminary evaluation indexes, and a solvent capable of dissolving both active ingredients is preferred. Icon meaning: x: insoluble (this system is a white opaque suspension with visible white solid particles); ∘: incompletely soluble (this system is partially transparent, with white visible bulk solids or suspended solids); √ completely soluble (the system is a completely transparent solution, without suspended substances and solid insoluble substances); and /: not investigated.

[2] = Solubility and storage stability (crystallization) of tofacitinib in gels and liniments with and without minoxidil; assay type: physicochemical; settings: in water and an organic solvent, gel kept stable
Protocol: (1) Different proportions of tofacitinib were set, a mixture of water and an organic solvent was used as a mixed solvent, and a single gel and a compound gel, and a single liniment and a compound liniment were prepared for comparatively investigating dissolved states of tofacitinib in the preparations with and without addition of minoxidil. The samples were stored at the room temperature for 1 month after the preparations were prepared, and stability of tofacitinib was evaluated by whether crystallization occurred or not during the storage.
(2) For an unstable preparation which is easy to precipitate tofacitinib crystals during the storage, adjustments were made by adding an organic solvent component, a surfactant, a crystallization inhibitor, or a thickening agent, increasing an amount of minoxidil, for comparatively investigating improvement of the stability of tofacitinib in the preparations with the above methods.
Solubility: (∘: incompletely soluble; √: completely soluble); and stability: (x: crystallization and precipitation; √: non-crystallization) […]

SMILES: C[C@@H]1CCN(C(=O)CC#N)C[C@@H]1N(C)c1ncnc2[nH]ccc12 [Tofacitinib citrate]
- Solubility in single solvents (in words) [1]: poor solubility
- Dissolution condition ([1]; Example 16-b: Propylene glycol:water = 1:9 (w/w)): ✓
- Dissolution condition ([1]; Example 16-c: Propylene glycol:water = 3:7 (w/w)): ✓
- Dissolution condition ([1]; Example 16-d: Propylene glycol:water = 5:5 (w/w)): ✓
- Dissolution condition ([1]; Example 16-e: Propylene glycol:water = 7:3 (w/w)): ✓
- Dissolution condition ([1]; Example 16-f: Propylene glycol:water = 9:1 (w/w)): ✓
- Dissolution condition ([1]; Example 17: Propylene glycol:water:ethanol = 5:2:3 (w/w)): ✓
- Amount of tofacitinib (calculated by the prototype) dissolved by minoxidil [2]: 0.05-1.0 times the amount of minoxidil
